Results published in ChEMBL document CHEMBL1201862, “PubChem BioAssay data set” (2004).
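Step 1: Grow cells in 96-well plates. Step 2: Expose to compound for 48 hours at 5 concentrations. Step 3: Interpolate endpoints linearly; if unreached, use highest concentration. Abbreviation: GI50, concentration required for 50% inhibition of growth.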 The source made the active and inactive calls. No stated cut-off is given here; in the data, active = GI50 up to about 1.1 µM and inactive = higher.

Columns and labels:
Test in all cases: inhibition of tumour cell growth, NCI panel, 48 h
786-0 = test system: 786-0
A549 = test system: A549
ACHN = test system: ACHN
CAKI-1 = test system: CAKI-1
CCRF-CEM = test system: CCRF-CEM
COLO 205 = test system: COLO 205
DLD-1 = test system: DLD-1
DMS-114 = test system: DMS-114
DMS-273 = test system: DMS-273
EKVX = test system: EKVX
HCC 2998 = test system: HCC 2998
HCT-116 = test system: HCT-116
HCT-15 = test system: HCT-15
HOP-18 = test system: HOP-18
HOP-62 = test system: HOP-62
HOP-92 = test system: HOP-92
IGROV-1 = test system: IGROV-1
K562 = test system: K562
KM-20L2 = test system: KM-20L2
KM12 = test system: KM12
LOX IMVI = test system: LOX IMVI
LXFL 529 = test system: LXFL 529
M14 = test system: M14
M19-MEL = test system: M19-MEL
MOLT-4 = test system: MOLT-4
Malme-3M = test system: Malme-3M
NCI-H226 = test system: NCI-H226
NCI-H23 = test system: NCI-H23
NCI-H522 = test system: NCI-H522
OVCAR-3 = test system: OVCAR-3
OVCAR-4 = test system: OVCAR-4
OVCAR-5 = test system: OVCAR-5
OVCAR-8 = test system: OVCAR-8
RXF 393 = test system: RXF 393
SF-268 = test system: SF-268
SF-295 = test system: SF-295
SF-539 = test system: SF-539
SK-MEL-28 = test system: SK-MEL-28
SK-MEL-2 = test system: SK-MEL-2
SK-MEL-5 = test system: SK-MEL-5
SK-OV-3 = test system: SK-OV-3
SN12C = test system: SN12C
SNB-19 = test system: SNB-19
SNB-75 = test system: SNB-75
SNB-78 = test system: SNB-78
SW-620 = test system: SW-620
TK-10 = test system: TK-10
U-251 = test system: U-251
UACC-257 = test system: UACC-257
UO-31 = test system: UO-31
A498 = test system: A498
HL-60 = test system: HL-60
HT-29 = test system: HT-29
NCI-H460 = test system: NCI-H460
RPMI-8226 = test system: RPMI-8226
SR = test system: SR
XF498 = test system: XF498

Measured: GI50

Cn1cc2ccccc2c1-c1nc(F)nc(Oc2ccc3c(c2)CC[C@@H]2C3CC[C@]3(C)C(O)CCC23)n1 (some centres undefined)
14.6 µM: HCT-15
inactive: 786-0 16.9 µM | A549 22.1 µM | ACHN 18.5 µM | CAKI-1 > 10 µM | CCRF-CEM 5.78 µM | COLO 205 22.3 µM | DLD-1 15.9 µM | DMS-114 13.8 µM | DMS-273 19.8 µM | EKVX > 10 µM | HCC 2998 19.9 µM | HCT-116 17.5 µM | HOP-18 15.3 µM | HOP-62 16.7 µM | HOP-92 18.4 µM | IGROV-1 13.7 µM | K562 29.2 µM | KM-20L2 20.2 µM | KM12 > 10 µM | LOX IMVI 15.8 µM | LXFL 529 10.4 µM | M14 15.9 µM | M19-MEL 21.7 µM | MOLT-4 17.6 µM | Malme-3M 18.3 µM | NCI-H226 52.7 µM | NCI-H23 > 10 µM | NCI-H522 10.9 µM | OVCAR-3 17.7 µM | OVCAR-4 14.2 µM | OVCAR-5 18.6 µM | OVCAR-8 17.4 µM | RXF 393 22.6 µM | SF-268 17.3 µM | SF-295 15.3 µM | SF-539 17.4 µM | SK-MEL-28 16.3 µM | SK-MEL-2 16.5 µM | SK-MEL-5 15 µM | SK-OV-3 17.2 µM | SN12C 15.4 µM | SNB-19 18.7 µM | SNB-75 14.2 µM | SNB-78 12.2 µM | SW-620 19.5 µM | TK-10 16.2 µM | U-251 12 µM | UACC-257 18.8 µM | UO-31 21.7 µM

Cc1ccc(/C=N/C23CC4CC(CC(C4)C2)C3)cc1
> 100 µM: HCT-15
inactive: 786-0 > 100 µM | A498 > 100 µM | A549 > 100 µM | ACHN > 100 µM | CAKI-1 > 100 µM | COLO 205 > 100 µM | DMS-114 27.5 µM | DMS-273 > 100 µM | EKVX > 100 µM | HCC 2998 > 100 µM | HCT-116 > 100 µM | HL-60 > 100 µM | HOP-62 > 100 µM | HT-29 > 100 µM | IGROV-1 > 100 µM | K562 > 100 µM | KM-20L2 > 100 µM | KM12 > 100 µM | LOX IMVI > 100 µM | M14 > 100 µM | M19-MEL > 100 µM | MOLT-4 > 100 µM | Malme-3M 25.1 µM | NCI-H226 > 100 µM | NCI-H23 > 100 µM | NCI-H460 > 100 µM | OVCAR-3 > 100 µM | OVCAR-4 > 100 µM | OVCAR-5 > 100 µM | OVCAR-8 > 100 µM | RPMI-8226 > 100 µM | RXF 393 > 100 µM | SF-268 > 100 µM | SF-295 > 100 µM | SF-539 > 100 µM | SK-MEL-28 > 100 µM | SK-MEL-2 85.7 µM | SK-MEL-5 84.1 µM | SK-OV-3 > 100 µM | SN12C > 100 µM | SNB-75 44.8 µM | SNB-78 > 100 µM | SR > 100 µM | SW-620 > 100 µM | TK-10 > 100 µM | U-251 > 100 µM | UACC-257 > 100 µM | XF498 83 µM
